Measured values reported in ChEMBL document CHEMBL4190275, “Quinoliniumolate and 2H-1,2,3-Triazole Derivatives from the Stems of Paramignya trimera and Their α-Glucosidase Inhibitory Activities: In Vitro and in Silico Studies” (J Nat Prod, 2017).

Experiment: Inhibition of Saccharomyces cerevisiae alpha-glucosidase using p-nitrophenyl-alpha-D-glucopyranoside as substrate measured after 30 mins

| IC50 | SMILES |
| --- | --- |
| 138 µM | CCCC[C@@H](CC)COC(=O)c1cn[nH]n1 |
| > 250 µM | C/C=C/c1cc(=O)c2ccccc2n1C |
